Holding throughout (format): physicochemical
Series [1] is described as follows: Stability of P0 gel in solution by MALDI-TOF mass spectrometry. To be noted: P0 in H2O pH 8.0, chloride salt 1.0 mM and trifluoroacetate salt 0.5 mM, ambient temperature, 2 weeks, MALDI-TOF/TOF MS. As for the experimental part:
The identity and purity of all peptides were verified by electrospray or matrix-assisted laser desorption/ionization time-of-flight (MALDI-TOF) mass spectrometry (Bryn Mawr College, PA, at the Chemical Center, Lund University, Lund, Sweden, or at the Laboratory for Biological Mass Spectrometry at Texas A&M University, College Station, TX). Mass spectra were typically acquired using an Autoflex Speed MALDI TOF/TOF mass spectrometer (Bruker Daltonics) in positive reflector mode. A 1 μL peptide sample was mixed with 0.5 μL matrix solution, consisting of 5 mg/ml α-cyano-4-hydroxy cinnamic acid, 80% acetonitrile, and 0.1% TFA, and added to a MALDI stainless steel plate. All spectra were externally calibrated using Peptide Calibration Standard II (Bruker Daltonics) containing 9 internal standard peptides. […]
All samples were prepared in nonstick Eppendorf tubes (Axygen, Inc.). […] The concentration of the peptide solutions was verified with the UV–vis absorbance peak at 280 nm using a molar absorptivity of 2560 M^–1 cm^–1 for all sequences (P0–P7). […]
Figure S16. P0 gel stability was evaluated by MALDI-TOF analysis. […] (A) A sample of P0 in H2O at pH 8.0, chloride salt (1.0 mM) and (B) trifluoroacetate salt (0.5 mM) were prepared for stability and analyzed by MALDI-TOF mass spectrometry. […]
degradation was observed over 2 weeks. […] The calculated mass for P0 [M+H]+ m/z = 1585.72. […]

Series [2] is described as follows: Hydrogelation and gel appearance by visual inspection. As for the experimental part:
All FTIR measurements were collected on samples where a trifluoroacetate (TFA^–) to chloride ion exchange was performed to eliminate signals from the TFA^– carbonyl moiety in the amide I spectral region (Figure S1). FTIR spectra were collected for P0–P5 in D2O at six pD values (3.0, 5.0, 7.0, 8.0, 9.0, and 10.0) (Figures S2–S7). FTIR analysis for P6–P8 was performed at a pD of 8.0 (Figures S8–S10). The bulk of FTIR studies were performed at pD 8.0, as the optimum pH range for hydrogelation is 7–9 for both SgI38–48[28] and P0.
All samples were prepared in nonstick Eppendorf tubes (Axygen, Inc.). Prior to the final sample preparation (for all FTIR samples and when otherwise stated), the TFA counteranions present in the peptide sample after HPLC purification were exchanged for chloride using the following protocol: lyophilized peptide was dissolved in deionized D2O (1.0 mL). HCl was added at a molar ratio of 13.7:1 HCl:peptide. For the Phe^CN mutants, the sample was divided into two groups and lyophilized. One sample was then redissolved in H2O (to avoid obscuring the O–D stretches in the nitrile region) and the other in D2O (to avoid overlapping of the O-H bending vibrations in the amide I region) to a final concentration of 2.0 mM, unless otherwise specified. All other peptide samples were redissolved in D2O. The exchange of TFA^– to chloride may be verified by a lack of signal at 1672 cm^–1, seen in the IR spectrum for the deuterium-exchanged TFA salt of P3, where the carbonyl signal from TFA is well separated from the amide I carbonyl high frequency stretch at 1684 cm^–1 (Figure S1). On the day of the peptide sample preparation, D2O was placed in an Eppendorf tube, was then used as background when collecting data points (0 h, 48 h, 1 week, etc.), and was assumed to absorb the same amount of H2O over time as the peptide sample prepared on the same day. The concentration of the peptide solutions was verified with the UV–vis absorbance peak at 280 nm using a molar absorptivity of 2560 M^–1 cm^–1 for all sequences (P0–P7). The pH/pD of the samples was then corrected to 8.0 using small volumes of NaOH and HCl (or NaOD and DCl). After attaining the desired pH/pD, samples were incubated at ambient temperature (ca. 22 °C) and followed over 7 days (or as specified) to allow for hydrogelation.

Series [3] in a line: SAXS/WAXS of fibrils, elliptical cylinder model fit. As to conditions: SAXS, elliptical cylinder model fit, 2.0 mM, day 7 at 21 °C, pH 8.0. As for the experimental part: Small- and wide-angle X-ray scattering (SAXS/WAXS) measurements were performed on a SAXSLabs Ganesha pinhole instrument (JJ X-ray System Aps) with an X-ray microsource (Xenocs) and a two-dimensional 300k Pilatus detector (Dectris Ltd., Switzerland). The wavelength, λ, used for all scattering experiments was 1.54 Å, and samples were measured at three sample-to-detector distances. All samples (200 μL) were loaded into a 1.5 mm diameter quartz capillary (Hilgenberg GmbH, Malsfeld, Germany), and the time-averaged scattering intensities were analyzed using a python code. The scattering intensity was corrected to an absolute scale by calibration against water. Supramolecular dimensions were extracted from SAXS data by using the SasView software and fitting the scattering curves to an elliptical-cylinder model (www.sasview.org).

Entries after “also recorded” stand apart in the source; their conditions may differ. Residues, ends and D or L forms follow the SMILES beside them.

Consider `CC[C@H](C)[C@H](NC(=O)[C@H](CO)NC(=O)[C@H](Cc1ccccc1)NC(=O)[C@H](CO)NC(=O)CNC(=O)[C@H](CCCCN)NC(C)=O)C(=O)N[C@@H](CCC(N)=O)C(=O)N[C@@H](Cc1ccc(O)cc1)C(=O)N[C@H](C(=O)N[C@@H](Cc1ccc(O)cc1)C(=O)N[C@@H](Cc1c[nH]cn1)C(=O)N[C@H](C(=O)N[C@@H](CC(=O)O)C(N)=O)C(C)C)[C@@H](C)O` [P0] (Ac-KGSFSIQYTYHVD-NH2), for which, in series [1], the Degradation in solution result is reported as “No appreciable, if any; also recorded: No degradation”. Further, in series [2] (P0), the “Optimum pH range for hydrogelation” value is given as 7–9. For the same compound, in series [2] (P0 in H2O at pH 8.0, chloride salt 1.0 mM and trifluoroacetate salt 0.5 mM), the “Hydrogel formation on pH adjustment” value is “soft gel immediately formed”. The “Gel appearance over time (clear or cloudy / precipitate)” value in series [2] (visual inspection, 2.0 mM in D2O, pD 8.0, ambient temperature, 24 h to 6 days) was “usually yields a clear gel upon preparation but occasionally turns cloudy”. In series [3], the Fibril axis ratio worked out at 2.8, the Fibril cross-sectional area is recorded as 14.9 nm^2 and the “Fibril minor radius (minor semiaxis)” value is given as 1.3 nm.

The record behind these values is article PMC11562788, “Insights into the Hierarchical Assembly of a Chemically Diverse Peptide Hydrogel Derived from Human Semenogelin I” (ACS Nano, 2024).
